This is an account of results in Sander's compilation of Henry's law constants (doi:10.1021/es00169a013).

The series in a line: Henry solubility constant Hcp at 298.15 K (mol/(m3 Pa)). Particulars: reference: Dunnivant et al. (1988).

On to `Clc1cccc(Cl)c1-c1c(Cl)cccc1Cl` [2,2',6,6'-tetrachlorobiphenyl], for which the “Henry solubility constant Hcp” value amounted to 0.018.

Take `Clc1cc(Cl)c(-c2cc(Cl)c(Cl)cc2Cl)cc1Cl` [2,2',4,4',5,5'-hexachlorobiphenyl]: the “Henry solubility constant Hcp” value was 0.075.

`Clc1ccc(-c2ccc(Cl)c(Cl)c2)cc1Cl` [3,3',4,4'-tetrachlorobiphenyl]: the “Henry solubility constant Hcp” value worked out at 0.1.

As for `Clc1ccc(-c2ccccc2)cc1Cl` [3,4-dichlorobiphenyl], the “Henry solubility constant Hcp” value stood at 0.048.

For `Clc1cc(Cl)c(-c2ccccc2)c(Cl)c1` [2,4,6-trichlorobiphenyl], the “Henry solubility constant Hcp” value was determined as 0.015.

For the compound `Clc1cccc(-c2cccc(Cl)c2Cl)c1Cl` [2,2',3,3'-tetrachlorobiphenyl], the “Henry solubility constant Hcp” value was 0.049.

For the compound `Clc1cc(Cl)c(-c2c(Cl)cc(Cl)cc2Cl)c(Cl)c1` [2,2',4,4',6,6'-hexachlorobiphenyl], the “Henry solubility constant Hcp” value came to 0.013.

Regarding `Clc1ccc(-c2ccc(Cl)cc2)cc1` [4,4'-dichlorobiphenyl], the “Henry solubility constant Hcp” value was 0.05.

As to `Clc1cccc(-c2cc(Cl)ccc2Cl)c1` [2,3',5-trichlorobiphenyl], the “Henry solubility constant Hcp” value was 0.03.

Consider `Clc1ccc(Cl)c(-c2cc(Cl)c(Cl)cc2Cl)c1` [2,2',4,5,5'-pentachlorobiphenyl], for which the “Henry solubility constant Hcp” value amounted to 0.039.

Take `Clc1ccc(Cl)c(-c2cc(Cl)ccc2Cl)c1` [2,2',5,5'-tetrachlorobiphenyl]: the “Henry solubility constant Hcp” value was 0.029.

Turning to `Clc1cccc(-c2cccc(Cl)c2)c1` [3,3'-dichlorobiphenyl], the “Henry solubility constant Hcp” value came out at 0.042.

Regarding `Clc1ccc(Cl)c(-c2ccccc2)c1` [2,5-dichlorobiphenyl], the “Henry solubility constant Hcp” value worked out at 0.025.

For `Clc1ccccc1-c1ccccc1Cl` [2,2'-dichlorobiphenyl], the “Henry solubility constant Hcp” value is 0.029.
